Experimental data as given in patent publication CN108159055A, “治疗乳腺癌的长效递药系统、其制备方法及应用” (XI'AN LIBANG MEDICINE SCIENCE AND TECHNOLOGY Co Ltd, priority 2018, dated 2018).

Assay: Miscibility of solvents with oils (Test Example 2 part 1, Table 2)
Type: physicochemical
Settings: no phospholipid

Q: For `CC(=O)OCC(COC(C)=O)OC(C)=O.CC(=O)OCC(COC(C)=O)OC(C)=O` [三乙酸甘油酯], which miscibility (with benzyl alcohol) is on record?
A: 混溶

Q: And the miscibility (with benzyl benzoate)?
A: 混溶

Q: And the miscibility (with ethanol)?
A: 不混溶

Q: And the miscibility (with ethyl lactate)?
A: 不混溶
